Bounds are passed on as bounds.

What is called IC50 is the concentration that inhibits the measured activity by half. Read a high IC50 as weaker potency. What is called IC90 is the point of the concentration-response curve where the effect stands at 90%.

What all share (format): cell-based
Assay [1] deals with SDMA (PRMT5 activity) in HAP1 MTAP-intact cell line. The experiment in a line: SDMA in-cell western assay, HAP1 MTAP-intact. The conditions noted are these: SDMA in-cell western, HAP1 MTAP-intact cells, 24 hours compound incubation.
The subject of assay [2] is SDMA (PRMT5 activity) in HAP1 MTAP-deleted cell line. The assay is described as follows: SDMA in-cell western assay, HAP1 MTAP-deleted. Particulars: for IC50 / IC90: SDMA in-cell western, HAP1 MTAP-deleted cells, 24 hours compound incubation; for Hap1 MTAP intact/deleted ratio: ratio of SDMA IC50 in HAP1 MTAP-intact to HAP1 MTAP-deleted cell line.
The test system of assay [3] is HAP1 MTAP-deleted cell line. The experiment in a line: Viability assay (CellTiter-Glo), HAP1 MTAP-deleted. Particulars: HAP1 MTAP-deleted cells, 7 days. In a few lines: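 HAP1 MTAP-deleted and MTAP-intact cells seeded, then dosed next day (n=3, 0.2% DMSO) and grown 7 days. Viability by CellTiter-Glo luminescence, expressed as % of DMSO control per cell line.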

As to `Cc1cc2[nH]c(C(=O)N3C[C@@H](C)CC[C@@H]3c3ccc4sc(C5CCN(C)CC5)nc4c3)cc2nc1N` [Compound 110, (5-amino-6-methyl-1H-pyrrolo[3,2-b]pyridin-2-yl)((2R,5S)-5-methyl-2-(2-(1-methylpiperidin-4-yl)benzo[d]thiazol-5-yl)piperidin-1-yl)methanone], the IC50 in assay [1] (Homo sapiens, HAP1, 24 h) is over 50 nM; in assay [2] (Homo sapiens), under 5 nM; in assay [3] (Homo sapiens, 168 h) it was under 100 nM. In addition, in assay [2] (Homo sapiens), the IC90 is under 75 nM. In addition, in assay [2], the “Hap1 MTAP intact/deleted ratio” value was “A (“A” indicates an IC50 ratio greater than or equal to 30 fold)”.

Take `CCc1cc(NC(=O)C(=O)N2C[C@@H](C)CC[C@@H]2c2ccc3c(C)n(C4CCN(C)CC4)nc3c2)cnc1N` [Compound 19, N-(6-amino-5-ethyl-3-pyridyl)-2-oxo-2-[(2R,5S)-5-methyl-2-[3-methyl-2-(1-methyl-4-piperidyl)indazol-6-yl]-1-piperidyl]acetamide]: the IC50 was over 50 nM in assay [1] (Homo sapiens, HAP1, 24 h); under 5 nM in assay [2] (Homo sapiens); under 100 nM in assay [3] (Homo sapiens, 168 h). In assay [2] (Homo sapiens), this molecule gave an IC90 of under 75 nM. The “Hap1 MTAP intact/deleted ratio” value in assay [2] was “A (“A” indicates an IC50 ratio greater than or equal to 30 fold)”.

Take `CCc1cc(NC(=O)C(=O)N2C[C@@H](C)CC[C@@H]2c2ccc3cn([C@@H]4CCN(C)C[C@@H]4C)nc3c2)cnc1N` [Compound 127]: the IC50 was 5 to 50 nM in assay [1] (Homo sapiens, HAP1, 24 h); under 5 nM in assay [2] (Homo sapiens); under 100 nM in assay [3] (Homo sapiens, 168 h). In assay [2] (Homo sapiens), the IC90 was under 75 nM. In assay [2], the “Hap1 MTAP intact/deleted ratio” value was “C (“C” indicates an IC50 ratio of less than 15 fold)”.

Take `CCc1cc(NC(=O)C(=O)N2C[C@@H](C)CC[C@@H]2c2ccc3sc([C@@H]4CN(C)C(C)(C)C4)nc3c2)cnc1N` (single isomer, unassigned) [Compound 56]: the IC50 is 5 to 50 nM in assay [1] (Homo sapiens, HAP1, 24 h); under 5 nM in assay [2] (Homo sapiens); under 100 nM in assay [3] (Homo sapiens, 168 h). Further, the IC90 in assay [2] (Homo sapiens) is under 75 nM. For the same molecule, the “Hap1 MTAP intact/deleted ratio” value in assay [2] was “B (“B” indicates an IC50 ratio greater than or equal to 15 fold but lower than 30 fold)”.

On to `COc1ncc(NC(=O)C(=O)N2C[C@@H](C)CC[C@@H]2c2ccc3sc([C@@H]4CCN(C)C[C@H]4OC)nc3c2)cc1C(N)=O` (single isomer, unassigned) [Compound 68], for which the IC50 in assay [1] (Homo sapiens, HAP1, 24 h) was over 50 nM; in assay [2] (Homo sapiens), under 5 nM; in assay [3] (Homo sapiens, 168 h), under 100 nM. Also, in assay [2] (Homo sapiens), the IC90 is under 75 nM. Moreover, the “Hap1 MTAP intact/deleted ratio” value in assay [2] was “A (“A” indicates an IC50 ratio greater than or equal to 30 fold)”.

In the case of `CCc1cc(NC(=O)C(=O)N2C[C@@H](C)CC[C@@H]2c2cccc(OC[C@H](C)N(C)C)c2)cnc1N` [Compound 66, N-(6-amino-5-ethylpyridin-3-yl)-2-((2R,5S)-2-(3-((S)-2-(dimethylamino)propoxy)phenyl)-5-methylpiperidin-1-yl)-2-oxoacetamide], the IC50 in assay [1] (Homo sapiens, HAP1, 24 h) was over 50 nM; in assay [2] (Homo sapiens), under 5 nM; in assay [3] (Homo sapiens, 168 h), under 100 nM. The molecule also showed an IC90 in assay [2] (Homo sapiens) of under 75 nM. Further, in assay [2], the “Hap1 MTAP intact/deleted ratio” value is “A (“A” indicates an IC50 ratio greater than or equal to 30 fold)”.

As to `CCc1cc(NC(=O)C(=O)N2C[C@@H](C)CC[C@@H]2c2ccc3cn([C@H]4CCOC4)nc3c2)cnc1N` (racemic) [Compound 93, N-(6-amino-5-ethyl-3-pyridyl)-2-oxo-2-[rac-(2R,5S)-5-methyl-2-(2-tetrahydrofuran-3-ylindazol-6-yl)-1-piperidyl]acetamide], the IC50 in assay [1] (Homo sapiens, HAP1, 24 h) was over 50 nM; in assay [2] (Homo sapiens) it was 5 to 50 nM; in assay [3] (Homo sapiens, 168 h) it was under 100 nM. Moreover, the IC90 in assay [2] (Homo sapiens) is under 75 nM. Also, in assay [2], the “Hap1 MTAP intact/deleted ratio” value is recorded as “A (“A” indicates an IC50 ratio greater than or equal to 30 fold)”.

In turn, `C[C@H]1CC[C@H](c2ccc3sc(C4CCN(C)C(C)(C)C4)nc3c2)N(C(=O)C(=O)Nc2cnc(N)c(C3COC3)c2)C1` (single isomer, unassigned) [Compound 1] returned an IC50 in assay [1] of 5 to 50 nM. In assay [2], the IC50 was under 5 nM, the IC90 is under 75 nM and the “Hap1 MTAP intact/deleted ratio” value is reported as “C (“C” indicates an IC50 ratio of less than 15 fold)”. Besides, in assay [3], the IC50 is under 100 nM.

Turning to `CCc1cc(NC(=O)C(=O)N2C[C@@H](C)CC[C@@H]2c2ccc3cccnc3c2)cnc1N` [Compound 76, N-(6-amino-5-ethylpyridin-3-yl)-2-((2R,5S)-5-methyl-2-(quinolin-7-yl)piperidin-1-yl)-2-oxoacetamide], the IC50 is over 50 nM in assay [1] (Homo sapiens, HAP1, 24 h); 5 to 50 nM in assay [2] (Homo sapiens); 100 to 1000 nM in assay [3] (Homo sapiens, 168 h). The molecule also showed an IC90 in assay [2] (Homo sapiens) of over 125 nM. The “Hap1 MTAP intact/deleted ratio” value in assay [2] was “A (“A” indicates an IC50 ratio greater than or equal to 30 fold)”.

For `COc1ncc(NC(=O)C(=O)N2C[C@@H](C)CC[C@@H]2c2ccc3sc(CC4CCN(C)CC4)nc3c2)cc1C(N)=O` [Compound 20, 2-methoxy-5-(2-((2R,5S)-5-methyl-2-(2-((1-methylpiperidin-4-yl)methyl)benzo[d]thiazol-5-yl)piperidin-1-yl)-2-oxoacetamido)nicotinamide], the IC50 in assay [1] (Homo sapiens, HAP1, 24 h) is over 50 nM; in assay [2] (Homo sapiens), under 5 nM; in assay [3] (Homo sapiens, 168 h), under 100 nM. In assay [2] (Homo sapiens), this molecule gave an IC90 of under 75 nM. In addition, the “Hap1 MTAP intact/deleted ratio” value in assay [2] is listed as “A (“A” indicates an IC50 ratio greater than or equal to 30 fold)”.

As for `COc1ncc(NC(=O)C(=O)N2C[C@@H](C)CC[C@@H]2c2ccc3sc([C@@H]4CCN(C)CC4(C)C)nc3c2)cc1C(N)=O` (single isomer, unassigned) [Compound 3], the IC50 is over 50 nM in assay [1] (Homo sapiens, HAP1, 24 h); under 5 nM in assay [2] (Homo sapiens); under 100 nM in assay [3] (Homo sapiens, 168 h). This molecule returned a 90% effect concentration (IC90) in assay [2] (Homo sapiens) of under 75 nM. For the same molecule, the “Hap1 MTAP intact/deleted ratio” value in assay [2] is on record as “B (“B” indicates an IC50 ratio greater than or equal to 15 fold but lower than 30 fold)”.

Consider `CCc1cc(NC(=O)C(=O)N2C[C@@H](C)CC[C@@H]2c2ccc3ccc(C4CCN(C)CC4)cc3c2)cnc1N` [Compound 123, N-(6-amino-5-ethylpyridin-3-yl)-2-((2R,5S)-5-methyl-2-(7-(1-methylpiperidin-4-yl)naphthalen-2-yl)piperidin-1-yl)-2-oxoacetamide], for which the IC50 is over 50 nM in assay [1] (Homo sapiens, HAP1, 24 h); under 5 nM in assay [2] (Homo sapiens); under 100 nM in assay [3] (Homo sapiens, 168 h). The molecule also registered an IC90 in assay [2] (Homo sapiens) of under 75 nM. For the same molecule, the “Hap1 MTAP intact/deleted ratio” value in assay [2] was “A (“A” indicates an IC50 ratio greater than or equal to 30 fold)”.

For `COc1ncc(NC(=O)C(=O)N2C[C@@H](C)CC[C@@H]2c2ccc3sc([C@H](C)N(C)C)nc3c2)cc1C(N)=O` [Compound 96, 2-methoxy-5-[[2-oxo-2-[(2R,5S)-5-methyl-2-[2-[(1S)-1-(dimethylamino)ethyl]-1,3-benzothiazol-5-yl]-1-piperidyl]acetyl]amino]pyridine-3-carboxamide], the IC50 in assay [1] (Homo sapiens, HAP1, 24 h) was over 50 nM; in assay [2] (Homo sapiens), 5 to 50 nM; in assay [3] (Homo sapiens, 168 h) it was under 100 nM. For the same molecule, the IC90 in assay [2] (Homo sapiens) lay within 75 to 125 nM. Besides, in assay [2], the “Hap1 MTAP intact/deleted ratio” value was “A (“A” indicates an IC50 ratio greater than or equal to 30 fold)”.

As for `COc1ncc(NC(=O)C(=O)N2C[C@@H](C)CC[C@@H]2c2ccc3sc(CC4(C)CCN(C)CC4)nc3c2)cc1C(N)=O` [Compound 22, 5-(2-((2R,5S)-2-(2-((1,4-dimethylpiperidin-4-yl)methyl)benzo[d]thiazol-5-yl)-5-methylpiperidin-1-yl)-2-oxoacetamido)-2-methoxynicotinamide], the IC50 in assay [1] (Homo sapiens, HAP1, 24 h) is over 50 nM; in assay [2] (Homo sapiens) it was under 5 nM; in assay [3] (Homo sapiens, 168 h), under 100 nM. This molecule also displayed an IC90 in assay [2] (Homo sapiens) of under 75 nM. The “Hap1 MTAP intact/deleted ratio” value in assay [2] is given as “B (“B” indicates an IC50 ratio greater than or equal to 15 fold but lower than 30 fold)”.

For the molecule `COc1ncc(NC(=O)C(=O)N2C[C@@H](C)CC[C@@H]2c2ccc3sc(C45CCN(CC4)C5)nc3c2)cc1C(N)=O` [Compound 81, 5-(2-((2R,5S)-2-(2-(1-azabicyclo[2.2.1]heptan-4-yl)benzo[d]thiazol-5-yl)-5-methylpiperidin-1-yl)-2-oxoacetamido)-2-methoxynicotinamide], the concentration for half-maximal inhibition (IC50) in assay [1] (Homo sapiens, HAP1, 24 h) was over 50 nM; in assay [2] (Homo sapiens) it was under 5 nM; in assay [3] (Homo sapiens, 168 h), under 100 nM. The IC90 in assay [2] (Homo sapiens) is under 75 nM. Also, the “Hap1 MTAP intact/deleted ratio” value in assay [2] is reported as “A (“A” indicates an IC50 ratio greater than or equal to 30 fold)”.

Take `COc1ncc(NC(=O)C(=O)N2C[C@@H](C)CC[C@@H]2c2ccc3cn([C@H]4CCOC4)nc3c2)cc1C(N)=O` (racemic) [Compound 97, 2-methoxy-5-[[2-oxo-2-[rac-(2R,5S)-5-methyl-2-(2-tetrahydrofuran-3-ylindazol-6-yl)-1-piperidyl]acetyl]amino]pyridine-3-carboxamide]: the 50% inhibitory concentration (IC50) in assay [1] (Homo sapiens, HAP1, 24 h) is over 50 nM; in assay [2] (Homo sapiens), 5 to 50 nM; in assay [3] (Homo sapiens, 168 h), 100 to 1000 nM. Moreover, the IC90 in assay [2] (Homo sapiens) was in the range of 75 to 125 nM. Moreover, in assay [2], the “Hap1 MTAP intact/deleted ratio” value was “A (“A” indicates an IC50 ratio greater than or equal to 30 fold)”.

As to `COc1ncc(NC(=O)C(=O)N2C[C@@H](C)CC[C@@H]2c2ccc3cn(C4CCOCC4)nc3c2)cc1C(N)=O` [Compound 107, 2-methoxy-5-[[2-oxo-2-[(2R,5S)-5-methyl-2-(2-tetrahydropyran-4-ylindazol-6-yl)-1-piperidyl]acetyl]amino]pyridine-3-carboxamide], the IC50 in assay [1] (Homo sapiens, HAP1, 24 h) was over 50 nM; in assay [2] (Homo sapiens), 5 to 50 nM; in assay [3] (Homo sapiens, 168 h), 100 to 1000 nM. The IC90 in assay [2] (Homo sapiens) was 75 to 125 nM. In assay [2], the “Hap1 MTAP intact/deleted ratio” value is given as “A (“A” indicates an IC50 ratio greater than or equal to 30 fold)”.

These data come from patent publication US20250171432A1, “COMPOUNDS AND METHODS OF USE” (Tango Therapeutics, Inc., priority 2022, published 2025).
